Patent US4761410A, “Cephem Compounds” (Fujisawa Pharmaceutical Co., Ltd., priority 1985, dated 1988)
≈ marks a conversion by molar mass, not a printed value.

Legend:
[1] = tested on: Proteus vulgaris IAM 1025; assay: In vitro antibacterial activity (MIC) by two-fold agar-plate dilution method, Proteus vulgaris IAM 1025; type: cell-based; details: IAM1025, heart infusion agar, 37° C., 20 hours, read-out: MIC (minimal inhibitory concentration)
Procedure: (§1) In vitro antibacterial activity was determined by the two-fold agar-plate dilution method as described below.
(§2) One loopful of an overnight culture of each test strain in Trypticase-soy broth (10^8 viable cells per ml) was streaked on heart infusion agar HI-agar) containing graded concentrations of representative test compound, and the minimal inhibitory concentration (MIC) was expressed in terms of μg/ml after incubation at 37° C. for 20 hours.

Escherichia coli 29 = assay: In vitro antibacterial activity (MIC) by two-fold agar-plate dilution method, Escherichia coli 29; type: cell-based; details: heart infusion agar, 37° C., 20 hours, read-out: MIC (minimal inhibitory concentration)
Procedure: as §1, §2

Row | Structure (SMILES) | MIC [1] [µg/mL] | MIC (Escherichia coli 29) [µg/mL]
1 | Cc1ccc[n+](CC2=C(C(=O)[O-])N3C(=O)C(NC(=O)/C(=N\OC(F)F)c4csc(N)n4)C3SC2)c1 (stereo not drawn) [Test Compound (1), 7-[2-(2-Aminothiazol-4-yl)-2-difluoromethoxyiminoacetamido]-3-(3-methyl-1-pyridiniomethyl)-3-cephem-4-carboxylate] | ≤ 0.025 | ≤ 0.025
2 | Cc1nsc(SCC2=C(C(=O)O)N3C(=O)C(NC(=O)/C(=N\OC(F)F)c4csc(N)n4)C3SC2)n1 (stereo not drawn) [Test Compound (2), 7-[2-(2-Aminothiazol-4-yl)-2-difluoromethoxyiminoacetamido]-3-(3-methyl-1,2,4-thiadiazol-5-yl)thiomethyl-3-cephem-4-carboxylic acid] | 0.05 (≈ 0.0887 µM) | 0.2 (≈ 0.355 µM)
3 | Nc1nc(/C(=N/OC(F)F)C(=O)NC2C(=O)N3C(C(=O)O)=C(CSc4ncns4)CSC23)cs1 (stereo not drawn) [Test Compound (3), 7-[2-(2-Aminothiazol-4-yl)-2-difluoromethoxyiminoacetamido]-3-(1,2,4-thiadiazol-5-yl)thiomethyl-3-cephem-4-carboxylic acid] | ≤ 0.025 | 0.1 (≈ 0.182 µM)
